This note sets out measurements from patent publication US12319652B2, “Salts and solid forms of (R)-1-(5-methoxy-1H-indol-1-yl)-N,N-dimethylpropan-2-amine” (priority 2021, dated 2025).

Where two headings read alike, the source gives them in different places.

The nature of data set [1]: Amorphous forms and thermal study (glass temperature Tg by DSC/TGA). Type of data set: physicochemical. On the technique in general: In DSC, transitions show as peaks or steps in heat flow.
The format of data set [2] is physicochemical. As for the experimental part:
Both samples were maintained at 75% RH at 40° C. and monitored by HPLC at time points t=1 h, 3 h, 24 h, 48 h, 7 d, 2 w, 3 w, 4 w and 5 w.
Under the conditions evaluated during this study, XRPD analysis could not be performed as compound 1 Fumarate turned to an oily residue within 3 h under both conditions.
[…] Both samples were maintained under equilibrium humidity of 75% RH at 40° C. and monitored, initially at hourly and then weekly time points.

Data set [3] is described as follows: Solubility determinations in SIF buffers (FaSSIF, FeSSIF, FaSSGF). It counts as physicochemical. As to conditions: 37° C. up to 24 h. In a few lines:
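Salt forms suspended at 30 mg/ml in FaSSIF, FeSSIF or FaSSGF at 37° C. for 24 h, pH kept in range with 1 M HCl or NaOH. Supernatants sampled at 1, 3, 6 and 24 h, centrifuged and quantified by HPLC as compound 1 free base against amorphous compound 1 calibrants; pellets checked by XRPD for form change.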

The nature of data set [4]: In-situ hydration evaluation of monofumarate Form A. It counts as physicochemical. As to conditions: ambient. The protocol: An XRPD specimen of monofumarate Form A was prepared and treated with sequential aliquots of water.
An XRPD plate was made up with a small amount of compound 1·Fumarate (batch 1, 5 mg, 1.0 wt) and analysed by XRPD on the 9-minute method and labelled as T=0. After the run, the sample was charged with purified water (10 μL, 2.0 vol) and analysed again by XRPD, labelled as T=9. This was repeated twice more for T=18 and T=27. The sample was left to stand under ambient conditions (15-25° C., ambient humidity, and pressure) in the fume hood for 33 h (FIG. 23).

Data set [5] can be described thus: Dynamic vapor sorption (DVS). As to conditions: for DVS isotherm type / hygroscopicity: 0 to 90 to 0% RH; for DVS mass change at 90.0% RH / DVS mass change at 0.0% RH / DVS mass change at 5.0% RH / DVS mass change at 10.0% RH / DVS mass change at 15.0% RH / DVS mass change at 20.0% RH / DVS mass change at 25.0% RH / DVS mass change at 30.0% RH / DVS mass change at 40.0% RH / DVS mass change at 50.0% RH / DVS mass change at 60.0% RH / DVS mass change at 70.0% RH / DVS mass change at 80.0% RH: dm/dt <0.002%. It counts as physicochemical. In a few lines:
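At 25 °C, 20 to 50 mg sample was dried at 0% RH for 60 minutes, then humidity raised 0-30% in 5% steps and 30-90% in 10% steps, with matching desorption back to 0%. Equilibrium set at dm/dt 0.002%/min; amorphous material was run with fixed 1 hour steps.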

`COc1ccc2c(ccn2C[C@@H](C)N(C)C)c1.O=C(O)/C=C/C(=O)O` [amorphous compound 1 fumarate]: in data set [1] (DSC thermal event Tg), the “DSC measurements, Endset” value worked out at 34.30 °C. For the same compound, in data set [1] (DSC thermal event Tg), the “DSC measurements, Integral” value is −1.73 Jg^−1. The “DSC measurements, Onset” value in data set [1] (DSC thermal event Tg) was 21.14 °C. Further, the “DSC measurements, Peak” value in data set [1] (DSC thermal event Tg) was determined as 29.67 °C. In data set [1] (heated up past the melt event on a hot stage microscope), the “Form Assignment” value was “Amorphous”. For the same compound, the “HPLC (% area)” value worked out at 93.84 % area in data set [2] (input batch 1 before storage at 75% RH/40° C.); 91.24 % area in data set [2] (open-necked wide vial, 75% RH/40° C., t = 2 w); 94.17 % area in data set [2] (open-necked wide vial, 75% RH/40° C., t = 3 w); 91.86 % area in data set [2] (open-necked wide vial, 75% RH/40° C., t = 4 w); 91.57 % area in data set [2] (open-necked wide vial, 75% RH/40° C., t = 5 w); 91.21 % area in data set [2] (sealed PK0056 electrostatic bags, 75% RH/40° C., t = 2 w). In addition, the “HPLC (% area)” value in data set [2] (sealed PK0056 electrostatic bags, 75% RH/40° C., t = 3 w) is on record as 91.94 % area; in data set [2] (sealed PK0056 electrostatic bags, 75% RH/40° C., t = 4 w), 90.9 % area; in data set [2] (sealed PK0056 electrostatic bags, 75% RH/40° C., t = 5 w) it was 91.3 % area.
For `COc1ccc2c(ccn2C[C@@H](C)N(C)C)c1.O=C(O)/C=C/C(=O)O`, in data set [3], the “Solubility in FaSSGF” value was “Solubility in SIF buffers: Soluble in FaSSIF, FeSSIF and FaSSGF at 37°”; the “Solubility in FaSSIF” value was “Solubility in SIF buffers: Soluble in FaSSIF, FeSSIF and FaSSGF at 37°”; the “Solubility in FeSSIF” value is “Solubility in SIF buffers: Soluble in FaSSIF, FeSSIF and FaSSGF at 37°”. Besides, in data set [4], the “Form change on treatment with sequential aliquots of water (XRPD)” value was “conversion into its amorphous form”. Further, the “RH above which pronounced mono, multilayer sorption and probable deliquescence occurred” value in data set [5] was over 80 % RH. Also, the “DVS isotherm type / hygroscopicity” value in data set [5] (listed as Form A) was “DVS mass per unit time equlibrated @ dm/dt (0.0002%/min) on Form A was performed (specimen was deliquescent by DVS)”. The “DVS isotherm type / hygroscopicity” value in data set [5] (listed as compound 1 fumarate crystalline polymorphic Form A) is on record as “deliquescent type isotherm”. Further, the “DVS weight gain at 70% RH” value in data set [5] (70% RH (printed 70° RH in Example 8)) is “ca. 1 % w/w”. Besides, in data set [5] (desorption step (second 90.0 entry)), the “DVS mass change at 90.0% RH” value was determined as 9.440%. In addition, in data set [5] (desorption step), the “DVS mass change at 0.0% RH” value came out at 0.085%, the “DVS mass change at 5.0% RH” value turned out to be 0.113%, the “DVS mass change at 10.0% RH” value turned out to be 0.141% and the “DVS mass change at 15.0% RH” value is 0.169%. In data set [5] (desorption step), the “DVS mass change at 20.0% RH” value was 0.201%, the “DVS mass change at 25.0% RH” value is on record as 0.238%, the “DVS mass change at 30.0% RH” value is reported as 0.279% and the “DVS mass change at 40.0% RH” value is reported as 0.374%. Also, in data set [5] (desorption step), the “DVS mass change at 50.0% RH” value was 0.476%, the “DVS mass change at 60.0% RH” value worked out at 0.619%, the “DVS mass change at 70.0% RH” value is reported as 0.885% and the “DVS mass change at 80.0% RH” value is 2.087%. In addition, in data set [5] (sorption step), the “DVS mass change at 0.0% RH” value is reported as 0.00%, the “DVS mass change at 5.0% RH” value was 0.021%, the “DVS mass change at 10.0% RH” value amounted to 0.047% and the “DVS mass change at 15.0% RH” value amounted to 0.068%. In data set [5] (sorption step), the “DVS mass change at 20.0% RH” value was determined as 0.088%, the “DVS mass change at 25.0% RH” value is 0.107%, the “DVS mass change at 30.0% RH” value is given as 0.125% and the “DVS mass change at 40.0% RH” value turned out to be 0.173%. In addition, in data set [5] (sorption step), the “DVS mass change at 50.0% RH” value came out at 0.242%, the “DVS mass change at 60.0% RH” value is listed as 0.366%, the “DVS mass change at 70.0% RH” value stood at 0.590% and the “DVS mass change at 80.0% RH” value came to 0.174%. Besides, the “DVS mass change at 90.0% RH” value in data set [5] (sorption step) came to 9.440%.
